The text below walks through data of patent US11098040B2, “Compounds and methods of use” (Ferro Therapeutics, Inc., priority 2018, dated 2021).

SMILES strings stand for the structures.

One may read the IC50 as the concentration that inhibits the measured activity by half.

The subject of the first data set is KP4. Briefly: Cell viability assay (CellTiter Glo), pancreatic ductal adenocarcinoma KP4. In kind it is cell-based, human. The following applies: Homo sapiens, KP-4, 96 h, pancreatic cancer cell line KP4, 96 hours, CellTiter Glo; read-out: IC50 μM KP4. As to the method:
(§1) Cell viability assay was performed to assess the potency of the compounds in human cancer cell lines KP4 (pancreatic ductal adenocarcinoma), MiaPaCa-2 (pancreatic carcinoma), AsPC-1 (pancreatic adenocarcinoma, ascites), 143B (osteosarcoma), and SJSA-1 (osteosarcoma). Selected compounds were also assayed in a human breast epithelial cell line MCF-10A, a nontumorigenic cell line as a control to assess differential activity. Cells at a density of 500-5,000 cells/well were seeded in 96-well plates and incubated at 37° C. overnight. A series of 9 different concentrations of compound stocks (500×) were created by 3-fold serial dilution in DMSO. These compounds were further diluted in culture media and then added to cells so that the final DMSO concentration was equal to 0.25% or less. After 96 hours of incubation, 50 μL of CellTiter Glo reagent (Promega) was added to each well and luminescence was measured after 10 minutes using EnVision (PerkinElmer). Compounds titrated from top concentration of up to 30 μM. The select compounds were tested initially from 30 μM as the top concentration in duplicates (range of 4.6 nM-30 μM). […] Luminescence from cells treated with DMSO alone was set as Max and % of inhibition was calculated as follows: Inhibition %=(Max-Sample value)/Max*100. Data was analyzed using XL-fit software (ID Business Solutions Ltd.). IC50, relative IC50, or % of top inhibition was calculated.
as §1, with “in” for “in human”, “line” for “lines”, “adenocarcinoma).” for “adenocarcinoma), MiaPaCa-2 (pancreatic carcinoma), AsPC-1 (pancreatic adenocarcinoma, ascites), 143B (osteosarcoma), and SJSA-1 (osteosarcoma). Selected compounds were also assayed in a human breast epithelial cell line MCF-10A, a nontumorigenic cell line as a control to assess differential activity.”, “1,000-10,000” for “500-5,000”, “All” for “Compounds titrated from top concentration of up to 30 μM. The select”
(§2) The results of the assay on stability in blood and IC50 values for pancreatic cancer cell line KP4 are given below in Table 24.
A general note: In ATP-based viability assays light output follows the ATP content of the culture.
As for `CC(C)OC(=O)[C@H]1Cc2c([nH]c3ccccc23)[C@H](c2ccc(C(=O)OC(C)(C)C)cc2)N1C(=O)CCl` [Compound 20], the IC50 is less than 0.01 µM.
On the same count and under the same terms, for `CN(C)C(=O)[C@H]1Cc2c([nH]c3ccccc23)[C@H](c2ccc(C(=O)OC(C)(C)C)cc2)N1C(=O)CCl` [Compound 21] the value was 0.01 to 0.1 µM; for `CNS(=O)(=O)c1ccc([C@H]2c3[nH]c4ccccc4c3C[C@H](C(=O)OC)N2C(=O)CCl)cc1` [Compound 22], less than 0.01 µM; for `COC(=O)[C@H]1Cc2c([nH]c3ccccc23)[C@H](c2ccc(S(=O)(=O)N(C)C)cc2)N1C(=O)CCl` [Compound 23], less than 0.01 µM.
Same read-out and setting: for `COC(=O)[C@H]1Cc2c([nH]c3ccccc23)[C@@H](c2ccc(S(=O)(=O)N(C)C)cc2)N1C(=O)CCl` [Compound 23a] the value was greater than 1 µM.
Same read-out and setting: the same measure for `COC(=O)[C@H]1Cc2c([nH]c3ccccc23)[C@H](c2ccc(S(=O)(=O)N[C@]34C[C@H]5C[C@H](C[C@H](C5)C3)C4)cc2)N1C(=O)CCl` [Compound 24]: less than 0.01 µM; for `COC(=O)[C@H]1Cc2c([nH]c3ccccc23)[C@H](c2ccc(C(=O)OC(C)(C)C)cc2)N1C(=O)/C=C/CCl` [Compound 25]: 0.1 to 0.5 µM.

System in a further data set: not listed separately
Briefly: Whole blood stability, mouse. In kind it is in vitro ADME. The following applies: 0 min.
Text: as §2
Consider `CC(C)OC(=O)[C@H]1Cc2c([nH]c3ccccc23)[C@H](c2ccc(C(=O)OC(C)(C)C)cc2)N1C(=O)CCl` [Compound 20], for which the “Whole Blood Stability % Remaining at 37° C. Mouse” value was 100.0%.
Consider `CN(C)C(=O)[C@H]1Cc2c([nH]c3ccccc23)[C@H](c2ccc(C(=O)OC(C)(C)C)cc2)N1C(=O)CCl` [Compound 21], for which the “Whole Blood Stability % Remaining at 37° C. Mouse” value came to 100.0%.
Same read-out and setting: for `CNS(=O)(=O)c1ccc([C@H]2c3[nH]c4ccccc4c3C[C@H](C(=O)OC)N2C(=O)CCl)cc1` [Compound 22] the value was 100.0%; for `COC(=O)[C@H]1Cc2c([nH]c3ccccc23)[C@H](c2ccc(S(=O)(=O)N(C)C)cc2)N1C(=O)CCl` [Compound 23], 100.0%.
Same read-out and setting: the same measure for `COC(=O)[C@H]1Cc2c([nH]c3ccccc23)[C@@H](c2ccc(S(=O)(=O)N(C)C)cc2)N1C(=O)CCl` [Compound 23a]: 100.0%; for `COC(=O)[C@H]1Cc2c([nH]c3ccccc23)[C@H](c2ccc(S(=O)(=O)N[C@]34C[C@H]5C[C@H](C[C@H](C5)C3)C4)cc2)N1C(=O)CCl` [Compound 24]: 100.0%; for `COC(=O)[C@H]1Cc2c([nH]c3ccccc23)[C@H](c2ccc(C(=O)OC(C)(C)C)cc2)N1C(=O)/C=C/CCl` [Compound 25]: 100.0%.

The same data set, now with this note: 30 min.
On to `CC(C)OC(=O)[C@H]1Cc2c([nH]c3ccccc23)[C@H](c2ccc(C(=O)OC(C)(C)C)cc2)N1C(=O)CCl` [Compound 20], for which the “Whole Blood Stability % Remaining at 37° C. Mouse” value is listed as 39.9%.
Still for that read-out and setting: for `CN(C)C(=O)[C@H]1Cc2c([nH]c3ccccc23)[C@H](c2ccc(C(=O)OC(C)(C)C)cc2)N1C(=O)CCl` [Compound 21] the value was 14.0%; for `CNS(=O)(=O)c1ccc([C@H]2c3[nH]c4ccccc4c3C[C@H](C(=O)OC)N2C(=O)CCl)cc1` [Compound 22], 47.4%; for `COC(=O)[C@H]1Cc2c([nH]c3ccccc23)[C@H](c2ccc(S(=O)(=O)N(C)C)cc2)N1C(=O)CCl` [Compound 23], 55.5%.
For `COC(=O)[C@H]1Cc2c([nH]c3ccccc23)[C@@H](c2ccc(S(=O)(=O)N(C)C)cc2)N1C(=O)CCl` [Compound 23a], the “Whole Blood Stability % Remaining at 37° C. Mouse” value stood at 83.8%.
Still for that read-out and setting: for `COC(=O)[C@H]1Cc2c([nH]c3ccccc23)[C@H](c2ccc(S(=O)(=O)N[C@]34C[C@H]5C[C@H](C[C@H](C5)C3)C4)cc2)N1C(=O)CCl` [Compound 24] the value was 62.0%; for `COC(=O)[C@H]1Cc2c([nH]c3ccccc23)[C@H](c2ccc(C(=O)OC(C)(C)C)cc2)N1C(=O)/C=C/CCl` [Compound 25], 46.2%.

Staying with this data set, now noted: 60 min.
As for `CC(C)OC(=O)[C@H]1Cc2c([nH]c3ccccc23)[C@H](c2ccc(C(=O)OC(C)(C)C)cc2)N1C(=O)CCl` [Compound 20], the “Whole Blood Stability % Remaining at 37° C. Mouse” value is listed as 19.1%.
On the same count and under the same terms, for `CN(C)C(=O)[C@H]1Cc2c([nH]c3ccccc23)[C@H](c2ccc(C(=O)OC(C)(C)C)cc2)N1C(=O)CCl` [Compound 21] the value was 3.2%; for `CNS(=O)(=O)c1ccc([C@H]2c3[nH]c4ccccc4c3C[C@H](C(=O)OC)N2C(=O)CCl)cc1` [Compound 22], 27.6%; for `COC(=O)[C@H]1Cc2c([nH]c3ccccc23)[C@H](c2ccc(S(=O)(=O)N(C)C)cc2)N1C(=O)CCl` [Compound 23], 34.4%.
As for `COC(=O)[C@H]1Cc2c([nH]c3ccccc23)[C@@H](c2ccc(S(=O)(=O)N(C)C)cc2)N1C(=O)CCl` [Compound 23a], the “Whole Blood Stability % Remaining at 37° C. Mouse” value stood at 78.6%.
With `COC(=O)[C@H]1Cc2c([nH]c3ccccc23)[C@H](c2ccc(S(=O)(=O)N[C@]34C[C@H]5C[C@H](C[C@H](C5)C3)C4)cc2)N1C(=O)CCl` [Compound 24], the “Whole Blood Stability % Remaining at 37° C. Mouse” value came to 37.0%.
Same read-out and setting: for `COC(=O)[C@H]1Cc2c([nH]c3ccccc23)[C@H](c2ccc(C(=O)OC(C)(C)C)cc2)N1C(=O)/C=C/CCl` [Compound 25] the value was 24.4%.

System in the next data set: not listed separately
Briefly: Whole blood stability, human. Type of data set: in vitro ADME. The following applies: 0 min.
Text: as §2
Regarding `CC(C)OC(=O)[C@H]1Cc2c([nH]c3ccccc23)[C@H](c2ccc(C(=O)OC(C)(C)C)cc2)N1C(=O)CCl` [Compound 20], the “Whole Blood Stability % Remaining at 37° C. Human” value is recorded as 100.0%.
Same read-out and setting: the same measure for `CN(C)C(=O)[C@H]1Cc2c([nH]c3ccccc23)[C@H](c2ccc(C(=O)OC(C)(C)C)cc2)N1C(=O)CCl` [Compound 21]: 100.0%.
Still for that read-out and setting: the same measure for `CNS(=O)(=O)c1ccc([C@H]2c3[nH]c4ccccc4c3C[C@H](C(=O)OC)N2C(=O)CCl)cc1` [Compound 22]: 100.0%; for `COC(=O)[C@H]1Cc2c([nH]c3ccccc23)[C@H](c2ccc(S(=O)(=O)N(C)C)cc2)N1C(=O)CCl` [Compound 23]: 100.0%.
Still for that read-out and setting: for `COC(=O)[C@H]1Cc2c([nH]c3ccccc23)[C@@H](c2ccc(S(=O)(=O)N(C)C)cc2)N1C(=O)CCl` [Compound 23a] the value was 100.0%; for `COC(=O)[C@H]1Cc2c([nH]c3ccccc23)[C@H](c2ccc(S(=O)(=O)N[C@]34C[C@H]5C[C@H](C[C@H](C5)C3)C4)cc2)N1C(=O)CCl` [Compound 24], 100.0%; for `COC(=O)[C@H]1Cc2c([nH]c3ccccc23)[C@H](c2ccc(C(=O)OC(C)(C)C)cc2)N1C(=O)/C=C/CCl` [Compound 25], 100.0%.

Still in this data set, the particulars now being: 30 min.
On to `CC(C)OC(=O)[C@H]1Cc2c([nH]c3ccccc23)[C@H](c2ccc(C(=O)OC(C)(C)C)cc2)N1C(=O)CCl` [Compound 20], for which the “Whole Blood Stability % Remaining at 37° C. Human” value is on record as 50.7%.
Same read-out and setting: the same measure for `CN(C)C(=O)[C@H]1Cc2c([nH]c3ccccc23)[C@H](c2ccc(C(=O)OC(C)(C)C)cc2)N1C(=O)CCl` [Compound 21]: 49.7%.
The same measure, in the same setting: the same measure for `CNS(=O)(=O)c1ccc([C@H]2c3[nH]c4ccccc4c3C[C@H](C(=O)OC)N2C(=O)CCl)cc1` [Compound 22]: 58.8%.
Same read-out and setting: for `COC(=O)[C@H]1Cc2c([nH]c3ccccc23)[C@H](c2ccc(S(=O)(=O)N(C)C)cc2)N1C(=O)CCl` [Compound 23] the value was 48.9%; for `COC(=O)[C@H]1Cc2c([nH]c3ccccc23)[C@@H](c2ccc(S(=O)(=O)N(C)C)cc2)N1C(=O)CCl` [Compound 23a], 83.2%.
On to `COC(=O)[C@H]1Cc2c([nH]c3ccccc23)[C@H](c2ccc(S(=O)(=O)N[C@]34C[C@H]5C[C@H](C[C@H](C5)C3)C4)cc2)N1C(=O)CCl` [Compound 24], for which the “Whole Blood Stability % Remaining at 37° C. Human” value was 61.7%.
As to `COC(=O)[C@H]1Cc2c([nH]c3ccccc23)[C@H](c2ccc(C(=O)OC(C)(C)C)cc2)N1C(=O)/C=C/CCl` [Compound 25], the “Whole Blood Stability % Remaining at 37° C. Human” value worked out at 55.0%.

The same data set, now with this note: 60 min.
In the case of `CC(C)OC(=O)[C@H]1Cc2c([nH]c3ccccc23)[C@H](c2ccc(C(=O)OC(C)(C)C)cc2)N1C(=O)CCl` [Compound 20], the “Whole Blood Stability % Remaining at 37° C. Human” value was found to be 41.6%.
The same measure, in the same setting: for `CN(C)C(=O)[C@H]1Cc2c([nH]c3ccccc23)[C@H](c2ccc(C(=O)OC(C)(C)C)cc2)N1C(=O)CCl` [Compound 21] the value was 24.3%; for `CNS(=O)(=O)c1ccc([C@H]2c3[nH]c4ccccc4c3C[C@H](C(=O)OC)N2C(=O)CCl)cc1` [Compound 22], 24.9%.
As to `COC(=O)[C@H]1Cc2c([nH]c3ccccc23)[C@H](c2ccc(S(=O)(=O)N(C)C)cc2)N1C(=O)CCl` [Compound 23], the “Whole Blood Stability % Remaining at 37° C. Human” value was 30.8%.
Still for that read-out and setting: for `COC(=O)[C@H]1Cc2c([nH]c3ccccc23)[C@@H](c2ccc(S(=O)(=O)N(C)C)cc2)N1C(=O)CCl` [Compound 23a] the value was 72.7%.
For `COC(=O)[C@H]1Cc2c([nH]c3ccccc23)[C@H](c2ccc(S(=O)(=O)N[C@]34C[C@H]5C[C@H](C[C@H](C5)C3)C4)cc2)N1C(=O)CCl` [Compound 24], the “Whole Blood Stability % Remaining at 37° C. Human” value worked out at 50.2%.
Still for that read-out and setting: the same measure for `COC(=O)[C@H]1Cc2c([nH]c3ccccc23)[C@H](c2ccc(C(=O)OC(C)(C)C)cc2)N1C(=O)/C=C/CCl` [Compound 25]: 51.9%.
